{"source": "patent EP4613273A1", "about": "“TREATMENT OF BONE LOSS” (priority 2024, dated 2025)", "key": {"[1]": {"test": "MIV-701/MIV-06404 plasma exposure ratio in dog", "format": "in vivo", "settings": "single oral administration, exposure ratio (peak area)", "experimental": "(§1) Compound Ib besylate salt (referred to as MIV-701 besylate salt) was administered once daily for 14 days to 3 healthy beagle dogs at three different doses: 1 mg/kg, 10 mg/kg and 100 mg/kg.\n(§2) Each treatment period can be resumed as follows: • J0 (T+24h): first Compound Ib besylate salt administration, withdrawal of blood samples for pharmacokinetic and plasma CTX-1 assessment (pre-dose and 0.5h, 1h, 2h, 4h, 8h and 24h after drug administration), pre-dose blood samples for hematology and clinical biochemistry (baseline values for safety assessment). • J1 to J12: pre-dose blood samples • J13: last Compound Ib besylate salt administration, withdrawal of plasma samples for pharmacokinetic and plasma CTX-1 assessment (pre-dose and 0.5h, 1h, 2h, 4h, 8h and 24h after drug administration), pre-dose sampling for hematology and clinical biochemistry (baseline values for safety assessment). • J15-J≥19: washout period.\nAfter centrifugation of blood samples plasma aliquots were stored at -20°C. After thawing on ice, 30 µL of plasma were transferred into 1.5 ml microtube containing 270 µL acetonitrile. Microtubes were then vigorously stirred and then centrifuged (12000 rpm, 10 min, 4°C) and the supernatant was transferred in Matrix tube for LC-MS/MS analysis. Calibration curve (9 points, 3 to 30 000 nM) was obtained by spiking plasma samples from naive dogs with appropriate quantities of Compound Ib.\n(§3) Equipment: LC-MS/MS Acquity I Class-Wevo TQD (Waters®): - Acquity I Class ∘ Column: Waters® Acquity BEH C8, 50*2.1mm, 1.7 µm (40°C) ∘ Mobile phase: • ▪ A: Ammonium Formate 5mM, pH=3.8 • ▪ B: Ammonimuformate 5 mM in CH3CN 5% aqueous, pH=3.8 ∘ Injection volume: 1 µL ∘ Speed: 600 µL/min ∘ Gradient: […]\n- Xevo TQD ∘ Source temperature: 150°C ∘ Desolvatation temperature: 600°C ∘ Cone gaz speed: 50L/h ∘ Desolvatation gaz speed: 1200L/h - Analytes MS characteristics"}, "CTX-1 [2]": {"tested_on": "CTX-1", "test": "Plasma CTX-1 (bone resorption marker) in healthy beagle dogs", "format": "in vivo", "experimental": "as §1\n(§4) The doses were consecutively administered for 14 days with a >5-day washout period between two dose levels.\nas §2"}, "[3]": {"test": "Safety of 14-day repeated oral administration in healthy beagle dogs", "format": "in vivo", "experimental": "as §1, §4, §2"}, "[4]": {"test": "MIV-701/MIV-06404 plasma exposure ratio in cat", "format": "in vivo", "settings": "for MIV-701/MIV-06404 exposure ratio: D13 (repeated); for MIV-701/MIV-06404 ratio: single oral administration (D0), exposure ratio", "experimental": "(§5) MIV-701 besylate salt was administered once daily for 14 days to 4 healthy cats at three increasing doses: 2 mg/kg, 10 mg/kg and 50 mg/kg.\n(§6) Each treatment period can be resumed as follows: • J0 (T+24h): first administration, withdrawal of blood samples for pharmacokinetic and plasma CTX-1 assessment (pre-dose and 0.5h, 1h, 2h, 4h, 8h and 24h after first drug administration), pre-dose blood samples for hematology and clinical biochemistry (baseline values for safety assessment). • J5 ([…]) and J8: pre-dose blood samples. • J13: last administration, withdrawal of plasma samples for pharmacokinetic and plasma CTX-1 assessment (pre-dose and 0.5h, 1h, 2h, 4h, 8h and 24h after last drug administration), pre-dose sampling for hematology and clinical biochemistry (baseline values for safety assessment). • J15 to J≥19: washout period.\nAfter centrifugation of blood samples plasma aliquots were stored at -20°C._After thawing on ice, 30 µL of plasma were transferred into 1.5 ml microtube containing 270 µL acetonitrile. Microtubes were then vigorously stirred and then centrifuged (12000 rpm, 10 min, 4°C) and the supernatant was transferred in Matrix tube for LC-MS/MS analysis.\nas §3\n- Xevo TQD • ∘ Source temperature: 150°C • ∘ Desolvatation temperature: 600°C • ∘ Cone gaz speed: 50L/h • ∘ Desolvatation gaz speed: 1200L/h - Analytes MS characteristics"}, "CTX-1 [5]": {"tested_on": "CTX-1", "test": "Plasma CTX-1 (bone resorption marker) in healthy cats", "format": "in vivo", "settings": "for pre-dose plasma CTX-1 during repeated administration: once-a-day oral 2 and 10 mg/kg, 14 days", "experimental": "as §5\nThe three doses were consecutively administered for 14 days with a >5-day washout period between two dose levels.\nas §6"}, "[6]": {"tested_on": "dogs with alveolar bone loss induced by spontaneously developed periodontal disease", "test": "Periodontal parameter assessment (CAL, PPD, bleeding) in dogs with periodontal disease", "format": "in vivo", "settings": "CTX-1 responders; Day-90 vs Day-0", "experimental": "The present study was performed on 10 Beagle dogs suffering from alveolar bone loss induced by spontaneously developed periodontal disease. All dogs were treated with MIV-701 besylate salt for minimum 30 day and maximum 90 days, depending on the tolerance at intermediate visits. The product is administrated to the dog by its owner at home, once a day with a meal.\nThere were two treatment groups: • Group A (5 dogs) with a dose of 25 mg/kg. • Group B (5 dogs) with a dose of 50 mg/kg.\nThe examination was performed at visit V2 (Day 0) and visit V5 (90t 3 days).\nAt visit V2 (Day 0) and V5 (90 ± 3 days). the Investigator evaluated the following parameters for each tooth: • Periodontal probing depth (PPD) - measured as the distance from the gingival margin to the bottom of the pocket using a graduated periodontal probe of Investigator's choice. The sulcus/pocket was measured circumferentially around the whole tooth and valued of 3 to 6 places, depending on the tooth localization (Figure 11). Measurements was done in millimeters (mm) and rounded to the nearest lower value. The mean PPD value of these measurements per tooth was calculated. • Clinical attachment loss (CAL) - measured as the distance from the cemento-enamel-junction to the bottom of the pocket using a periodontal probe of the Investigator choice. CAL was measured in 3 to 6 sites per tooth depending on the tooth localization (Figure 11). Measurements was done in millimeters (mm) and rounded to the nearest lower value (Kortegaard et al. 2014). The mean CAL value of these measurements per tooth will be calculated. • Bleeding Probing Index - assessed at each site of PPD and CAL measurement. Depending on the absence or presence of bleeding within 10 second following probing of the tooth, BPI scored either as 0 or 1 respectively. The mean BIP value was calculated per tooth.\nAt visit V5 (90t 3 days), the Investigator assessed PPD, CAL and BoP in only 3 selected teeth for the study and recorded it in PERIODONTAL PARAMETERS FORM."}, "[7]": {"settings": "human healthy volunteers, cited from earlier work; for MIV-701/MIV06404 ratio: single oral administration"}}, "note": "Counter-ions that a name gives are not always drawn. Like-named read-outs stand apart in the source and are kept apart here."}
{"smiles": "CC(C)C[C@H](NC(=O)c1ccc(-c2csc(N3CCN(C)CC3)n2)cc1)C(=O)N1C[C@H](F)[C@H]2OCC(O)(O)[C@H]21", "note": "[MIV-701 besylate salt, N-[(S)-1-((3aS,6S,6aS)-6-Fluoro-S-oxo-hexahydro-furo[3,2-b]pyrrole-4-carbony)-3-methyl-butyl]-4-[2-(4-methyl-piperazin-1-yl)-thiazol-4-yl]-benzamide benzenesulphonate]", "values": [{"measurement": "MIV-701/MIV06404 ratio", "setting": "[1]; 1 mg/kg", "result": 7.0}, {"measurement": "MIV-701/MIV06404 ratio", "setting": "[1]; 10 mg/kg", "result": 3.6}, {"measurement": "MIV-701/MIV06404 ratio", "setting": "[1]; 100 mg/kg", "result": 3.3}, {"measurement": "inhibition of pre-dose plasma CTX-1 vs baseline", "setting": "CTX-1 [2]; 10 mg/kg once a day, D1 to end of 14 days", "result": 40, "unit": "%"}, {"measurement": "time of CTX-1 inhibition peak after administration", "setting": "CTX-1 [2]; D0, three doses tested", "result": 8, "unit": "h"}, {"measurement": "pre-dose plasma CTX-1 during repeated administration", "setting": "CTX-1 [2]; once a day oral, D1 to end of 14 days", "result": "dose-dependent inhibition"}, {"measurement": "CTX-1 plasma concentration 24 hours after administration", "setting": "CTX-1 [2]; single dose 10mg/kg and 100 mg/kg", "result": "did not go back to pre-dose concentration"}, {"measurement": "effect on plasma CTX-1", "setting": "CTX-1 [2]; single oral administration (D0) at 1 mg, 10 mg and 100 mg", "result": "dose-dependent effect"}, {"measurement": "tolerance", "setting": "[3]; oral once daily for 14 days, 1, 10 and 100 mg/kg", "result": "well tolerated at all doses"}, {"measurement": "signs of toxicity", "setting": "[3]; oral once daily for 14 days, regardless of the dose", "result": "No obvious signs of toxicity"}, {"measurement": "MIV-701/MIV-06404 exposure ratio", "setting": "[4]; 2 mg/kg", "result": 5.0}, {"measurement": "MIV-701/MIV-06404 exposure ratio", "setting": "[4]; 10 mg/kg", "result": 3.4}, {"measurement": "MIV-701/MIV-06404 ratio", "setting": "[4]; 2 mg/kg", "result": 6.9}, {"measurement": "MIV-701/MIV-06404 ratio", "setting": "[4]; 10 mg/kg", "result": 6.2}, {"measurement": "MIV-701/MIV-06404 ratio", "setting": "[4]; 50 mg/kg", "result": 3.9}, {"measurement": "inhibition of plasma CTX-1 vs baseline", "setting": "CTX-1 [5]; 10 mg/kg once a day, end of the 14 days treatment period", "result": 60, "unit": "%"}, {"measurement": "time of CTX-1 inhibition peak after administration", "setting": "CTX-1 [5]; D0, three doses tested", "result": 4, "unit": "h"}, {"measurement": "pre-dose plasma CTX-1 during repeated administration", "setting": "CTX-1 [5]", "result": "rapid drop"}, {"measurement": "pre-dose plasma CTX-1 during repeated administration", "setting": "CTX-1 [5]; listed as MIV-701-besylate", "result": "sustained inhibition"}, {"measurement": "CTX-1 plasma concentration 24 hours after administration", "setting": "CTX-1 [5]; single dose, all doses tested", "result": "did not go back to pre-dose concentration"}, {"measurement": "reduction of plasma CTX-1", "setting": "CTX-1 [5]; single oral administration (D0) at 2, 10 and 50 mg/kg", "result": "comparable reduction of plasma CTX-1"}, {"measurement": "Clinical Attachment Loss (CAL)", "setting": "[6]", "result": "significantly improved"}, {"measurement": "Gingival Bleeding Index (GBI)", "setting": "[6]", "result": "not modified"}, {"measurement": "Periodontal Probing Depth (PPD)", "setting": "[6]", "result": "significantly improved"}, {"measurement": "MIV-701/MIV-06404 exposure ratio", "setting": "[7]; single administrations, dose not stated", "result": 0.03}, {"measurement": "MIV-701/MIV06404 ratio", "setting": "[7]; 25 mg", "result": 0.01}, {"measurement": "MIV-701/MIV06404 ratio", "setting": "[7]; 75 mg", "result": 0.02}, {"measurement": "MIV-701/MIV06404 ratio", "setting": "[7]; 150 mg", "result": 0.03}, {"measurement": "MIV-701/MIV06404 ratio", "setting": "[7]; 300 mg", "result": 0.04}]}
